Consider 18 molecules from patent US20050090522A1 (priority 2001, published 2005).

Data set [1] relates to HIV-1. Description: HIV-1 single-round infectious luciferase reporter virus (pseudotype) assay in HeLa CD4 CCR5 cells. It counts as cell-based. Summed up:
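HeLa CD4 CCR5 cells (5×10^4/well, DMEM + 10% FBS) were treated with compound (final <10 μM) and infected with single-round luciferase reporter virus made in 293 cells, at MOI ~0.01. Luciferase was read 72 h post infection. EC50 came from 10-concentration percent-inhibition curves fitted to a four-parameter logistic model.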
On the technique in general: A reporter such as luciferase makes a cellular process visible.

Data set [2] relates to HeLa cells. Description: Cytotoxicity assay in HeLa cells (MTT dye reduction, CC50). As to the method: • Virus production—Human embryonic Kidney cell line, 293, propagated in Dulbecco's Modified Eagle Medium (Life Technologies, Gaithersburg, Md.) containing 10% fetal Bovine serum (FBS, Sigma, St. Louis, Mo.). • Virus infection—Human epithelial cell line, HeLa, expressing the HIV-1 receptors CD4 and CCR^5 was propagated in Dulbecco's Modified Eagle Medium (Life Technologies, Gaithersburg, Md.) containing 10% fetal Bovine serum (FBS, Sigma, St. Louis, Mo.) and supplemented with 0.2 mg/mL Geneticin (Life Technologies, Gaithersburg, Md.) and 0.4 mg/mL Zeocin (Invitrogen, Carlsbad, Calif.). […] Transfections were performed using lipofectAMINE PLUS reagent as described by the manufacturer (Life Technologies, Gaithersburg, Md.). Experiment • 1. Compound was added to HeLa CD4 CCR5 cells plated in 96 well plates at a cell density of 5×10^4 cells per well in 100 μl Dulbecco's Modified Eagle Medium containing 10% fetal Bovine serum at a concentration of […]. • 2. 100 μl of single-round infectious reporter virus in Dulbecco's Modified Eagle Medium was then added to the plated cells and compound at an approximate multiplicity of infection (MOI) of 0.01, resulting in a final volume of 200 μl per well and a final compound concentration of <10 μM. • 3. Samples were harvested 72 h after infection. • 4. Viral infection was monitored by measuring luciferase expression from viral DNA in the infected cells using a luciferase reporter gene assay kit (Roche Molecular Biochemicals, Indianapolis, Ind.). Infected cell supernatants were removed and 50 μl of Dulbecco's Modified Eagle Medium (without phenol red) and 50 μl of luciferase assay reagent reconstituted as described by the manufacturer (Roche Molecular Biochemicals, Indianapolis, Ind.) was added per well. Luciferase activity was then quantified by measuring luminescence using a Wallac microbeta scintillation counter. • 5. […] An EC50 provides a method for comparing the antiviral potency of the compounds of this invention. The effective concentration for fifty percent inhibition (EC50) was calculated with the Microsoft Excel Xlfit curve fitting software. For each compound, curves were generated from percent inhibition calculated at 10 different concentrations by using a four paramenter logistic model (model 205). Table 1 is the key for the data in Tables 2-4. Cytoxicity assays were conducted with the same HeLa using methodology well known in the art.
(§1) For accuracy, the determined measure of viral inhibition is an EC50; but the minimum plasma concentrations which should be maintained in a patient is generally believed to be at least four or five fold higher. […] Lower is better. • 4) Estimating potential exposure in man by measuring parameters such as AUC and rate of clearance by oral and iv dosing in rats. High exposure and low clearance was desired.

Data set [3] can be described thus: Metabolic stability in pooled human liver microsomes (HLM). The following applies: pooled human liver microsomes, 3 μM drug; Low/Intermediate/High. As to the method:
Metabolic Stability Studies of compounds in Liver Microsomes. The metabolic stability of compounds were investigated in pooled liver microsomes from humans. The human liver microsomes were obtained from BD Gentest (Lot #16, Woburn, Mass.) with a protein concentration of 20 mg/ml and a total cytochrome P450 (CYP) concentration of 0.55 nmol/mg protein. A stock solution of drug was prepared in acetonitrile at 1 mM. […] The incubation media consisted of potassium phosphate buffer (0.1 M, pH 7.4), liver microsomes (final concentration 0.9 mg/ml), magnesium chloride (0.033 mM), and a NADPH-regenerating system. […] The test compound was pre-incubated in the media for 2 min. The reaction was initiated by the addition of the cofactors. The incubation was carried out at 37° C. for 10 min. The reaction was terminated by drawing an aliquot of 100 μL from the incubation and adding into 200 μL of acetonitrile containing a reference compound as an […] analytical standard. Following vortex-mixing and centrifugation, an aliquot of 10 μL of the supernatant was analyzed by LC/MS.
GUIDELINES can be used to categorized test substances as low, intermediate or highly cleared compounds.
as §1
The stability of compounds were also evaluated to determine metabolic stability when incubated in in vitro preparations of human liver microsomes (HLM). This is one commonly used predictive system for evaluating the potential for human metabolism and projecting clearance rates in man. Compounds with low clearance rates were most desireable.
Background: Microsomes from liver hold many membrane-bound enzymes, among them those of drug oxidation.

[4] abbreviates: Human immunodeficiency virus 1, HeLa-CD4/CCR5, read-out: EC50 Group from TABLE 1, HeLa CD4 CCR5 cells, single-round infectious luciferase reporter virus.
[5] abbreviates: Human immunodeficiency virus 1, HeLa-CD4/CCR5, read-out: EC50 category, HIV-1 single-round reporter virus assay, category 1/2/3 per Table A1 key.
The mark [6] stands for this setting: cytotoxicity, Yes = CC50 above 100 uM, No = not.
Where [7] appears, read: Human immunodeficiency virus 1, HeLa-CD4/CCR5, read-out: EC50 Group from Table 1, Table 4, HeLa CD4 CCR5 cells, single-round luciferase reporter virus.
The mark [8] stands for this setting: Human immunodeficiency virus 1, HeLa-CD4/CCR5, read-out: EC50 category, initial pseudotype assay, key in Table A1.
Where [9] appears, read: HeLa cells, six days with drug, MTT.

SMILES strings stand for the structures. Read-outs that look alike come from different tables or passages of the source.

For `Cn1ccc(-c2ncc(F)c3c(C(=O)C(=O)N4CCN(C(=O)c5ccccc5)CC4)c[nH]c23)n1` [Example 29, 1-benzoyl-4-[(4-fluoro-7-(1-methyl-pyrazol-3-yl)-6-azaindol-3-yl)-oxoacetyl]piperazine], the EC50 in data set [1] (setting [4]) was below 1 µM; in data set [1] (setting [5]) it was 0.0002 to 1 µM. For the same molecule, in data set [2] (setting [6]), the “CC50 > 100 uM” value is “No”. The “HLM predicted human clearance class” value in data set [3] is listed as “High (0.201-0.300)”.
Taken in the same sequence, the figures for `COc1cnc(-c2nccs2)c2[nH]cc(C(=O)C(=O)N3CCN(C(=O)c4ccccc4)CC3)c12` [Example 35, 1-(benzoyl)-4-[(4-methoxy-7-(thiazol-2-yl)-6-azaindol-3-yl)-oxoacetyl]piperazine] were below 1 µM, below 0.0002 µM, “Yes” and “Intermediate (0.101-0.200)”.
With `O=C(C(=O)N1CCN(C(=O)c2ccccc2)CC1)c1c[nH]c2c(-c3cc[nH]n3)ncc(F)c12` [Example 38, 1-benzoyl-4-[(4-fluoro-7-(pyrazol-3-yl)-6-azaindol-3-yl)-oxoacetyl]piperazine], the results for the EC50 in data set [1] (setting [4]) and in data set [1] (setting [5]) were below 1 µM and below 0.0002 µM, respectively. Besides, the “HLM predicted human clearance class” value in data set [3] was “Low (0-0.100)”.
As for `COc1cnc(-c2cc[nH]n2)c2[nH]cc(C(=O)C(=O)N3CCN(C(=O)c4ccccc4)CC3)c12` [Example 39, 1-benzoyl-4-[(4-methoxy-7-(pyrazol-3-yl)-6-azaindol-3-yl)-oxoacetyl]piperazine], the EC50 in data set [1] (setting [4]) is below 1 µM; in data set [1] (setting [5]), 0.0002 to 1 µM. The “CC50 > 100 uM” value in data set [2] (setting [6]) is given as “No”. For the same molecule, the “HLM predicted human clearance class” value in data set [3] is given as “Intermediate (0.101-0.200)”.
Taken in the same sequence, the figures for `O=C(C(=O)N1CCN(C(=O)c2ccccc2)CC1)c1c[nH]c2c(-c3cncnc3)ncc(F)c12` [Example 42, 1-benzoyl-4-[(4-fluoro-7-(pydin-5-yl)-6-azaindol-3-yl)-oxoacetyl]piperazine] were below 1 µM, 0.0002 to 1 µM, “Yes” and “Low (0-0.100)”.
Taken in the same sequence, the figures for `COc1cnc(-c2cncs2)c2[nH]cc(C(=O)C(=O)N3CCN(C(=O)c4ccccc4)CC3)c12` [Example 71, 1-benzoyl-4-[(4-methoxy-7-(thioazol-5-yl)-6-azaindol-3-yl)-oxoacetyl]piperazine] were below 1 µM, below 0.0002 µM, “Yes” and “Intermediate (0.101-0.200)”.
In the same order, the values of `COc1cnc(-c2ccco2)c2[nH]cc(C(=O)C(=O)N3CCN(C(=O)c4ccccc4)CC3)c12` [Example 73, 1-(benzoyl)-4-[(4-methoxy-7-(furan-2-yl)-6-azaindol-3-yl)-oxoacetyl]piperazine] are below 1 µM, below 0.0002 µM, “Yes” and “Intermediate (0.101-0.200)”.
On to `O=C(C(=O)N1CCN(C(=O)c2ccccc2)CC1)c1c[nH]c2c(-c3cnccn3)ncc(F)c12` [Example 95, 1-benzoyl-4-[(4-fluoro-7-(pyrazin-2-yl)-6-azaindol-3-yl)-oxoacetyl]piperazine], for which the EC50 is below 1 µM in data set [1] (setting [4]) and below 0.0002 µM in data set [1] (setting [5]). For the same molecule, the “HLM predicted human clearance class” value in data set [3] is “Intermediate (0.101-0.200)”.
In the case of `COc1cnc(-n2cc(C)cn2)c2[nH]cc(C(=O)C(=O)N3CCN(C(=O)c4ccccc4)CC3)c12` [Example 191, 1-benzoyl-4-[(4-methoxy-7-(4-methylpyrazol-1-yl)-6-azaindol-3-yl)-oxoacetyl]piperazine], the EC50 is below 1 µM in data set [1] (setting [4]) and 0.0002 to 1 µM in data set [1] (setting [5]). Also, the “CC50 > 100 uM” value in data set [2] (setting [6]) is on record as “Yes”.
As for `O=C(C(=O)N1CCN(C(=O)c2ccccc2)CC1)c1c[nH]c2c(-n3ccnn3)ccnc12` [Example 206, 1-(4-benzoyl-piperazin-1-yl)-2-(7-[1,2,3]triazol-1-yl-1H-pyrrolo[3,2-b]pyridin-3-yl)-ethane-1,2-dione], the EC50 was below 1 µM in data set [1] (setting [7]) and 0.0002 to 1 µM in data set [1] (setting [5]). In addition, the “CC50 > 100 uM” value in data set [2] (setting [6]) is reported as “Yes”.
Consider `O=C(C(=O)N1CCN(C(=O)c2ccccc2)CC1)c1c[nH]c2c(-n3cccn3)ccnc12` [Example 208, 1-(4-Benzoyl-piperazin-1-yl)-2-(7-pyrazol-1-yl-1H-pyrrolo[3,2-b]pyridin-3-yl)-ethane-1,2-dione], for which the EC50 in data set [1] (setting [7]) is below 1 µM; in data set [1] (setting [5]), 0.0002 to 1 µM. Moreover, the “CC50 > 100 uM” value in data set [2] (setting [6]) is on record as “Yes”.
As to `CNC(=O)c1cc(-c2ncc(F)c3c(C(=O)C(=O)N4CCN(C(=O)c5ccccc5)CC4)c[nH]c23)n[nH]1` [Example 211], the EC50 in data set [1] (setting [4]) is below 1 µM; in data set [1] (setting [5]), below 0.0002 µM. The “HLM predicted human clearance class” value in data set [3] is recorded as “Intermediate (0.101-0.200)”.
Taken in the same sequence, the figures for `CN(C)C(=O)c1cc(-c2ncc(F)c3c(C(=O)C(=O)N4CCN(C(=O)c5ccccc5)CC4)c[nH]c23)n[nH]1` [Example 212] were below 1 µM, below 0.0002 µM and “Low (0-0.100)”.
Regarding `O=C(C(=O)N1CCN(C(=O)c2ccccc2)CC1)c1c[nH]c2c(-n3nccn3)ncc(F)c12` [Example 217], the EC50 in data set [1] (setting [4]) was below 1 µM; in data set [1] (setting [8]), 0.0002 to 1 µM. Besides, the “CC50 > 100 uM” value in data set [2] (setting [9]) is on record as “Yes”.
`O=C(C(=O)N1CCN(C(=O)c2ccccc2)CC1)c1c[nH]c2c(-n3cccc3)ncc(F)c12` [Example 220]: the EC50 in data set [1] (setting [4]) is below 1 µM; in data set [1] (setting [5]), 0.0002 to 1 µM. In addition, the “CC50 > 100 uM” value in data set [2] (setting [6]) is “Yes”.
Consider `COc1cnc(-n2nccn2)c2[nH]cc(C(=O)C(=O)N3CCN(C(=O)c4ccccc4)[C@H](C)C3)c12` [Example 256, (R)-1-benzoyl-2-methyl-4-[(4-methoxy-7-(1,2,3-triazol-2-yl)-6-azaindol-3-yl)-oxoacetyl]piperazine], for which the EC50 was below 1 µM in data set [1] (Human immunodeficiency virus 1, HeLa-CD4/CCR5, read-out: EC50 Group from Table 1, Table 2-1, HeLa CD4 CCR5 cells, single-round luciferase reporter virus) and 0.0002 to 1 µM in data set [1] (setting [8]). In addition, in data set [2] (setting [9]), the “CC50 > 100 uM” value was “Yes”.
`CNC(=O)c1ccn(-c2ncc(OC)c3c(C(=O)C(=O)N4CCN(C(=O)c5ccccc5)CC4)c[nH]c23)n1` [Example 276, 1-benzoyl-4-[(4-methoxy-7-(3-methylaminocarbonyl-pyrazol-1-yl)-6-azaindol-3-yl)-oxoacetyl]piperazine]: the EC50 in data set [1] (setting [4]) is below 1 µM; in data set [1] (setting [5]), below 0.0002 µM. Further, in data set [2] (setting [6]), the “CC50 > 100 uM” value is recorded as “Yes”.
Take `Cn1ncnc1-c1ncc(F)c2c(C(=O)C(=O)N3CCN(C(=O)c4ccccc4)CC3)c[nH]c12` [Example 301]: the EC50 in data set [1] (setting [4]) was below 1 µM; in data set [1] (setting [5]), 0.0002 to 1 µM. For the same molecule, in data set [2] (setting [6]), the “CC50 > 100 uM” value is recorded as “Yes”.

By EC50 is commonly meant the concentration needed to bring the measured effect to its halfway point.
